Assay results reported in patent US20070141120A1, “Peptide having an ace inhibiting effect” (priority 2003, published 2007).
Peptide text beside a SMILES is read from it.

What was measured:
ACE [1] = experiment: ACE-inhibition assay 2: modified Matsui assay; type: biochemical; conditions: substrate Hip-His-Leu, pH 8.3, 37° C., 30 min
Method: This ACE inhibition activity was assayed according to the method of Matsui et al. (Matsui, T. et al. (1992) Biosci. Biotech. Biochem. 56: 517-518) with the modifications described below.
For each sample 75 μl 3 mM hippuryl histidine leucine (Hip-His-Leu, Sigma chemicals Co.; the chemical was dissolved in 250 mM Borate containing 200 mM NaCl, pH 8.3); 20 μl 0.1 U/ml ACE (obtained at Sigma) or H2O, and 25 μl sample or H2O were mixed (see Table 1). The mixtures were incubated at 37° C. and stopped after 30 min by adding 125 μl 0.5 M HCl. Subsequently, 225 μl bicine/NaOH solution (1 M NaOH:0.25 M bicine (4:6)) was added, followed by 25 μl 0.1 M TNBS (2,4,6-Trinitrobenzenesulfonic acid, Fluka, Switzerland; in 0.1 M Na2HPO4). After incubation for 20 min. at 37° C., 4 ml 4 mM Na2SO3 in 0.2 M NaH2PO4 was added and the absorbance at 416 nm was measured with UV/Vis spectrophotometer (Shimadzu UV-1601 with a CPS controller, Netherlands).
The amount of ACE inhibition (ACEI) activity was calculated as a percentage of inhibition compared with the conversion rate of ACE in the absence of an inhibitor: ACEI (%)=(((C1−C2)−(S1−S2))/(C1−C2))*100 (1)
C1=Absorbance without ACE inhibitory component (=max. ACE activity) [AU].
C2=Absorbance without ACE inhibitory component and without ACE (background) [AU].
S1=Absorbance in the presence of ACE and the ACE inhibitory component [AU].
S2=Absorbance in the presence of the ACE inhibitory component, but without ACE [AU].

ACE [2] = molecular target: ACE (Homo sapiens, UniProt P12821); experiment: ACE-inhibition assay 1: enzyme based assay (EBA); type: biochemical; conditions: substrate Abz-FRK-(Dnp)P-OH, pH 7.0, fluorescence
ACE (Homo sapiens, UniProt P12821), sequence (P12821 30-1306, species assumed): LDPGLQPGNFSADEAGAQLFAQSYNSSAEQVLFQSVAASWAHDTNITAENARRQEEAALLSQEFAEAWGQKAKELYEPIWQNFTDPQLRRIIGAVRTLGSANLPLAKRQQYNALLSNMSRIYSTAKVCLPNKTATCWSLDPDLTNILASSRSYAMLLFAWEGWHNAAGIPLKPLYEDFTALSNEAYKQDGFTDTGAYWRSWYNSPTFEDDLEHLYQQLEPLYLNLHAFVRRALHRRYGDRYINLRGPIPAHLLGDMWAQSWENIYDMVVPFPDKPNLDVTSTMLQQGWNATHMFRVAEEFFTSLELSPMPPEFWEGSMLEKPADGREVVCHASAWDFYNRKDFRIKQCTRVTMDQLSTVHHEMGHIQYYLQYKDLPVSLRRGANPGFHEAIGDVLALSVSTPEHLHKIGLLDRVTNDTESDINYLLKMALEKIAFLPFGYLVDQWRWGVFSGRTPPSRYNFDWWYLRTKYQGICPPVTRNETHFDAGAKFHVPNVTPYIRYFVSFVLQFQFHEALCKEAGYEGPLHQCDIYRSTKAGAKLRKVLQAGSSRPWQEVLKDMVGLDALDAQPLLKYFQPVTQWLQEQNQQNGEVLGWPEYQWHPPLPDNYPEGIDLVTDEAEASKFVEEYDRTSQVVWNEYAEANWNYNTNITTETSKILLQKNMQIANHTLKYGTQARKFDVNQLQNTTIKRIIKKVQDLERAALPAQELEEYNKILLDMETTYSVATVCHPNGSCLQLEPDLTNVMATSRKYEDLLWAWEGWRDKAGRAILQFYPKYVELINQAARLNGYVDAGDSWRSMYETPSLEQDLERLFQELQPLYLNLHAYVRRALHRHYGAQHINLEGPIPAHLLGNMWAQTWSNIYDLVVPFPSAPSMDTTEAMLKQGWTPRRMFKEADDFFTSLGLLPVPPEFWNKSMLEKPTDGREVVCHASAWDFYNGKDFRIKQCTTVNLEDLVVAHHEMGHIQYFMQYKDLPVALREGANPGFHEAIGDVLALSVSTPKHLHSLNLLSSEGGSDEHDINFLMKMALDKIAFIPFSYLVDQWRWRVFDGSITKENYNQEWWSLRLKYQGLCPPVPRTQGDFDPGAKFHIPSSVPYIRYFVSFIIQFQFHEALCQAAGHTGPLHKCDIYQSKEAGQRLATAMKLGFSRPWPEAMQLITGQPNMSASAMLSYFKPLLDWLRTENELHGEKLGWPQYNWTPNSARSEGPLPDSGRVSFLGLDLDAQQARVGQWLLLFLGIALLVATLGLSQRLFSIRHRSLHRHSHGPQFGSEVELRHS
Method: ACE and a synthetic substrate (Abz-FRK-(Dnp)P-OH) were used in the ACE-inhibition assay performed in white optiplate-96 microplates (Packard Bioscience). The substrate was a kind gift of Adriana K. Carmona (Dept. of Biophysics, Escola Paulista de Medivina, Universidae Federal de Sao Paulo, Brazil). Stock solutions of Abz-FRK-(Dnp)P-OH were prepared in DMSO. […] The assay buffer composition was 100 mM tris/HCl buffer pH 7.0 containing 100 mM NaCl. Forty μl sample solution in assay buffer was added to each well. In case of the controls only buffer was added. The samples were measured in threefold in a fluorophotometer (Fluostar, BMG labtechnologies). […] The ACE activity was measured for 10 cycles (about 10 minutes) by measuring the fluorescence at λex=320 nm and ξem=420 nm. The raw data was converted to the slope/sec and the ACE inhibition activity was calculated using the equation below. ACE inhibition (%)=[1−(Smean−Bmean)/(Cmean−Bmean)]*100
Bmean=average result of background (substrate)

HUVEC cells = experiment: Stability during exposure to HUVEC cells (LC-MS); conditions: up to 120 min, peptide mixtures
Method: HUVEC cells were obtained from (Cambrex Bio Science, Verviers, Belgium) and used in experiments at passage 1-5. Cells were cultured in 75 cm^2 culture flasks (Corning Costar, Badhoevedorp, The Netherlands). The culture medium (Cambrex) consisted of EBM-2 supplemented with 2% (v/v) foetal bovine serum, 0.04% (v/v) Hydrocortisone, 0.4% (v/v) human Fibroblast Growth Factor Basic with heparin, 0.1% (v/v) Vascular Endothelial Growth Factor, 0.1% (v/v) human recombinant Insulin-like Growth Factor, 0.1% (v/v) Ascorbic acid, 0.1% (v/v) human recombinant Epidermal Growth Factor, 0.1% (v/v) Gentamicin, Amphotericin-B and 0.1% (v/v) Heparin. Cells were maintained at 37° C. in a humidified atmosphere of 5% CO2 in air. For stability experiments, cells were seeded in a 12 well plate (Corning Costar, Badhoevedorp, The Netherlands) at a density of 100.000 cells/well and cultured for 2 days.
Cells were cultured in 12-well plates. Peptide mixtures were added to culture medium without foetal bovine serum, but containing 20% (v/v) solid phase extracted foetal bovine serum. For HUVEC, 400 μl medium containing 0.1, 1 and 10 μg/ml peptide was added to a well of the culture plate. Three times 130 μl medium was collected at 0, 5, 10, 20, 30, 60, 90 and 120 min of incubation. […] Experiments were performed in triplicate and all samples were directly placed on dry-ice and stored at −20° C. […] Wells without cells served as controls.
(§1) All measurements were carried out on a Waters Quattro-II or Quattro-Ultima triple quadrupole mass spectrometer. The LC separation was carried out at 25° C. on a Inertsil 5 ODS3 column, 150×2.1 mm, packed with 3 μm particles (Chompack) using 0-50% acetonitrile/0.1% (v/v) TFA. For analyses, 5 μl sample was injected onto the column. The flow rate through the column was 0.2 ml/min. The total flow after post-column makeup was 0.05 ml/min and contained a 7/3 (v/v) mixture of propionic acid and propanol-2. Gradient effluent was analysed using MRM mass spectrometry in positive-ESI mode. Capillary voltage was 4 kV. Source and nebulizer temperature were 100° C. and 250° C., repsectively. Drying and nebuliser gas flow were 300 l/h and 17 l/h, respectively. Collision gas was argon at a pressure of 7.9 e-4 mbar.

Caco-2 cells = experiment: Stability during exposure to Caco-2 cells (LC-MS); conditions: up to 360 min, peptide mixtures
Method: Caco-2 cells were obtained from American Type Culture Collection (ATCC) and used in experiments at passage 30-40. Cells were cultured in 75 cm^2 culture flasks (Corning Costar, Badhoevedorp, The Netherlands). The culture medium consisted of DMEM (high glucose, with L-glutamine) supplemented with 20% (v/v) foetal bovine serum, 1% (v/v) penicillin/streptomycin solution and 1% (v/v) NEAA. Cells were maintained at 37° C. in a humidified atmosphere of 5% CO2 in air. For stability experiments, cells were seeded on 12 well cell culture plates (Costar, Badhoevedorp, The Netherlands) and cultured for at least 21 days.
Cells were cultured in 12-well plates. Peptide mixtures were added to culture medium without foetal bovine serum, but containing 20% (v/v) solid phase extracted foetal bovine serum. […] For Caco-2 cells, 330 μl medium containing 0.1, 1 and 10 μg/ml peptide was added to each well of the culture plate. Three times 110 μl medium was collected at 0, 5, 10, 20, 30, 60, 90, 180 and 360 min of incubation. Experiments were performed in triplicate and all samples were directly placed on dry-ice and stored at −20° C. […] Wells without cells served as controls.
as §1

[3] = Stability during exposure to human serum (LC-MS); conditions: 37° C., up to 360 min, peptide mixtures
Method: Samples of 1.5 ml were collected in eppendorf vials at each of the time points. […] Samples were subsequently incubated for 5 min at 100° C. and then centrifugated in an IEC Micromax RF centrifuge (Boom BV Meppel) at 10.000 rpm for 20 minutes. The supernatant was collected in eppendorf vials and stored at −20° C. for further analysis. Experiments were performed in triplicate.
as §1

[4] = in sour milk, hypertensive humans, placebo-controlled; cited from earlier work
[5] = In vitro gastrointestinal digestion (GI conditions); conditions: simulated gastric fluid pH 3.5 60 min, then intestinal fluid pH 6.8 120 min, 37° C.
Method: The stability of peptides in the human gastrointestinal tract was studied by subjecting fermented or hydrolysed milk proteins to typical conditions in the stomach and small intestine. Gastric conditions were mimicked by dissolving 80 ml fermented or hydrolysed milk protein in 820 ml water contianing 2.0 g NaCl, 2.9 g pepsin and 0.45 g Amano Lipase F-AP15 from Rhizopus oryzae. The fluid was adjusted to pH 3.5 with HCl, stirred with a peddle (50 rpm) and kept at 37° C. for 60 min. […] The simulated intestinal fluid was stirred with a peddle (50 rpm) and kept at 37° C. for 120 min. Samples were collected at different time points during the in vitro gastrointestinal digestion. After collection, samples were directly heated at 95° C. for 30 min and subsequently stored at −20° C.

SMILES	IC50 (ACE [1]) [µM]	IC50 (ACE [2]) [µM]	Stability, HUVEC (HUVEC cells)	Stability, Caco-2 (Caco-2 cells)	Stability, Serum [3]	Blood pressure effect [4]	Stability, GI conditions [5]
N[C@@H](CS)C(=O)N1CCC[C@H]1C(=O)N1CCC[C@H]1C(=O)O [CPP] (H-Cys-Pro-Pro-OH; N-terminus and C-terminus assumed)	4	5					
N[C@@H](Cc1ccccc1)C(=O)N[C@@H](Cc1ccc(O)cc1)C(=O)O [FY] (H-Phe-Tyr-OH; N-terminus and C-terminus assumed)	10	20	−	+/−	+		
CC[C@H](C)[C@H](N)C(=O)N1CCC[C@H]1C(=O)N1CCC[C@H]1C(=O)O [IPP]			+	−	+/−	blood pressure lowering effect	+
NCCCC[C@H](N)C(=O)N1CCC[C@H]1C(=O)N1CCC[C@H]1C(=O)O [KPP] (H-Lys-Pro-Pro-OH; N-terminus and C-terminus assumed)		> 50					
CC(C)C[C@H](NC(=O)[C@@H](NC(=O)[C@@H](N)CCCCN)C(C)C)C(=O)N1CCC[C@H]1C(=O)N[C@H](C(=O)N1CCC[C@H]1C(=O)O)C(C)C [KVLPVP] (H-KVLPVP-OH; N-terminus and C-terminus assumed)	2		−	−	−		
CSCC[C@H](N)C(=O)N1CCC[C@H]1C(=O)N1CCC[C@H]1C(=O)O [MPP] (H-Met-Pro-Pro-OH; N-terminus and C-terminus assumed)	7	10	+	−	+/−		
CC[C@H](C)[C@H](NC(=O)[C@@H]1CCCN1)C(=O)N1CCC[C@H]1C(=O)O [PIP] (H-Pro-Ile-Pro-OH; N-terminus and C-terminus assumed)		> 50	+/−	−	−		
CC(C)C[C@H](NC(=O)[C@@H]1CCCN1)C(=O)N1CCC[C@H]1C(=O)O [PLP] (H-Pro-Leu-Pro-OH; N-terminus and C-terminus assumed)		> 50	+/−	−	−		
C[C@@H](O)[C@H](N)C(=O)N1CCC[C@H]1C(=O)N1CCC[C@H]1C(=O)O [TPP] (H-Thr-Pro-Pro-OH; N-terminus and C-terminus assumed)	15	35	+	+	+/−		
CC(C)[C@H](N)C(=O)N[C@@H](C)C(=O)N1CCC[C@H]1C(=O)O [VAP] (H-Val-Ala-Pro-OH; N-terminus and C-terminus assumed)	1	4	−	−	−		
CC(C)[C@H](N)C(=O)N[C@@H](Cc1ccccc1)C(=O)O [VF] (H-Val-Phe-OH; N-terminus and C-terminus assumed)			−	+/−	+/−		
CC(C)[C@H](N)C(=O)N1CCC[C@H]1C(=O)N1CCC[C@H]1C(=O)O [VPP]						blood pressure lowering effect	
